In ChEMBL document CHEMBL1149776, “Synthesis and biological evaluation of some thiazolyl and thiadiazolyl derivatives of 1H-pyrazole as anti-inflammatory antimicrobial agents” (Eur J Med Chem, 2008):
≈ marks a conversion by molar mass, not a printed value.

Columns and labels:
[1] = system: Escherichia coli; assay: Antimicrobial activity against Escherichia coli ATCC 25922; type: functional
[2] = system: Staphylococcus aureus; assay: Antimicrobial activity against Staphylococcus aureus ATCC 19433; type: functional
[3] = species: Rattus norvegicus; assay: Antiinflammatory activity in Sprague-Dawley rat cotton pellet-induced granuloma model; type: functional
[4] = system: Candida albicans; assay: Antimicrobial activity against Candida albicans; type: functional
[5] = system: Rattus norvegicus; assay: Gastrointestinal toxicity in albino rat assessed as ulcerogenic effect at 30 umol/kg, po for 3 days; type: organism-based; conditions: in vivo, 72 h
[6] = system: Mus musculus; assay: Toxicity in parenterally dosed mouse upto 65 mg/kg assessed as mortality upto 7 days; type: organism-based; set-up: dose 65 mg/kg; conditions: in vivo, 168 h
[7] = molecular target: Prostaglandin G/H synthase 1 (Homo sapiens, UniProt P23219); assay: Inhibition of human platelet COX1
[8] = system: Mus musculus; assay: Toxicity in mouse upto 40 mg/kg, po assessed as mortality after 24 hrs; type: organism-based; set-up: dose 40 mg/kg, route oral; conditions: in vivo
[9] = system: Rattus norvegicus; assay: Antiinflammatory activity in albino rat assessed as protection against carrageenan-induced paw edema at 10 umol/kg, sc administered 1 hr prior to carrageenan challenge relative to indomethacin; type: functional

Sequence of Prostaglandin G/H synthase 1 (P23219 whole entry): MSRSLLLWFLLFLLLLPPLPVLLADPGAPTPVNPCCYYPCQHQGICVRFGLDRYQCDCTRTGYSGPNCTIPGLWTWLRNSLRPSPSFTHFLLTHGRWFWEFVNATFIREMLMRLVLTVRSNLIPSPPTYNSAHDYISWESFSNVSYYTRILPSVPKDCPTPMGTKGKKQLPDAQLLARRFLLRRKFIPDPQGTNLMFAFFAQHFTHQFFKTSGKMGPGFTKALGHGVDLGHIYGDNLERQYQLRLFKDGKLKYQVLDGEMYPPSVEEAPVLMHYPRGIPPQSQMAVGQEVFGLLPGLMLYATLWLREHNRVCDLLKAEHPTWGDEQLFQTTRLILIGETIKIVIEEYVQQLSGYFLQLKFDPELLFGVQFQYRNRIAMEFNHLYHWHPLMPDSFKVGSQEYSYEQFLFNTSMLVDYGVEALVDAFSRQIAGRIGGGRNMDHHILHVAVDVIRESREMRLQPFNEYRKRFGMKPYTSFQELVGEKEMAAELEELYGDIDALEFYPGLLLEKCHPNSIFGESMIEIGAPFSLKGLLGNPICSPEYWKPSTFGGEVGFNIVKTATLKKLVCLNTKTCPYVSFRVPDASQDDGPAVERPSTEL

| SMILES | MIC [1] [µg/mL] | MIC [2] [µg/mL] | MIC [4] [µg/mL] | ED50 [3] [µmol] | Activity [5] [%] | Activity [6] | IC50 [7] [µmol] | Activity [8] | Activity [9] [%] |
| --- | --- | --- | --- | --- | --- | --- | --- | --- | --- |
| Cc1ccc(Nc2nnc(-c3cn(-c4ccc(S(=O)(=O)/N=C/N(C)C)cc4)nc3-c3ccccc3)s2)cc1 | 100 (≈ 184 µM) | 25 (≈ 46 µM) | > 200 | 12.46 | 10 |  |  |  |  |
| CN(C)/C=N/S(=O)(=O)c1ccc(-n2cc(/C=N\N=C3/SCC(=O)N3c3ccc(Cl)cc3)c(-c3ccccc3)n2)cc1 | 100 (≈ 165 µM) | 25 (≈ 41.2 µM) | > 200 | 9.12 | 10 | Non-toxic | > 100 | Non-toxic | 104.16 |
| CC1(C)S[C@@H]2[C@H](NC(=O)[C@H](N)c3ccccc3)C(=O)N2[C@H]1C(=O)O [AMPICILLIN] | 25 (≈ 71.5 µM) | 12.5 (≈ 35.8 µM) |  |  |  |  |  |  |  |
| CN(C)/C=N/S(=O)(=O)c1ccc(-n2cc(/C=N\N=c3/scc(-c4ccc(Br)cc4)n3-c3ccc(Cl)cc3)c(-c3ccccc3)n2)cc1 | 100 (≈ 134 µM) | 100 (≈ 134 µM) | 50 (≈ 67.1 µM) | 9.56 | 0 | Non-toxic |  | Non-toxic |  |
| COc1ccc2c(c1)c(CC(=O)O)c(C)n2C(=O)c1ccc(Cl)cc1 [INDOMETHACIN] |  |  |  | 9.58 | 100 |  |  |  |  |
| Cc1ccc(N2C(=O)CS/C2=N\N=C/c2cn(-c3ccc(S(=O)(=O)/N=C/N(C)C)cc3)nc2-c2ccccc2)cc1 | 25 (≈ 42.7 µM) | 100 (≈ 171 µM) | 100 (≈ 171 µM) | 9.34 | 20 | Non-toxic | 87.12 | Non-toxic | 98.65 |
| CN(C)/C=N/S(=O)(=O)c1ccc(-n2cc(-c3nnc(Nc4ccccc4)s3)c(-c3ccccc3)n2)cc1 | 100 (≈ 189 µM) | > 200 | 100 (≈ 189 µM) | 11.38 | 0 |  |  |  |  |

More lines, main results first:

| MIC [1] [µg/mL] | MIC [2] [µg/mL] | MIC [4] [µg/mL] | SMILES | ED50 [3] [µmol] | Activity [5] [%] | Activity [6] | IC50 [7] [µmol] | Activity [8] | Activity [9] [%] |
| --- | --- | --- | --- | --- | --- | --- | --- | --- | --- |
| 50 (≈ 79.4 µM) | 100 (≈ 159 µM) | 25 (≈ 39.7 µM) | CC(=O)N(C1=NN(C(C)=O)C(c2cn(-c3ccc(S(=O)(=O)/N=C/N(C)C)cc3)nc2-c2ccccc2)S1)c1ccc(C)cc1 (stereo unspecified) | 14.86 | 10 |  |  |  |  |
| 50 (≈ 69 µM) | 50 (≈ 69 µM) | 100 (≈ 138 µM) | Cc1ccc(-n2c(-c3ccc(Br)cc3)cs/c2=N\N=C/c2cn(-c3ccc(S(=O)(=O)/N=C/N(C)C)cc3)nc2-c2ccccc2)cc1 | 11.06 | 0 |  | 96.25 |  | 94.46 |
| 50 (≈ 76.9 µM) | > 200 | 25 (≈ 38.5 µM) | CC(=O)N(C1=NN(C(C)=O)C(c2cn(-c3ccc(S(=O)(=O)/N=C/N(C)C)cc3)nc2-c2ccccc2)S1)c1ccc(Cl)cc1 (stereo unspecified) | 13.96 | 10 |  |  |  |  |
| 50 (≈ 81.2 µM) | > 200 | 50 (≈ 81.2 µM) | CC(=O)N(C1=NN(C(C)=O)C(c2cn(-c3ccc(S(=O)(=O)/N=C/N(C)C)cc3)nc2-c2ccccc2)S1)c1ccccc1 (stereo unspecified) | 12.54 | 20 |  |  |  |  |
| 100 (≈ 177 µM) | 100 (≈ 177 µM) | > 200 | CN(C)/C=N/S(=O)(=O)c1ccc(-n2cc(-c3nnc(Nc4ccc(Cl)cc4)s3)c(-c3ccccc3)n2)cc1 | 11.88 | 10 |  |  |  |  |
| 50 (≈ 87.5 µM) | 25 (≈ 43.7 µM) | 100 (≈ 175 µM) | CN(C)/C=N/S(=O)(=O)c1ccc(-n2cc(/C=N\N=C3/SCC(=O)N3c3ccccc3)c(-c3ccccc3)n2)cc1 | 13.36 | 10 |  |  |  |  |
| 25 (≈ 35.2 µM) | 25 (≈ 35.2 µM) | > 200 | CN(C)/C=N/S(=O)(=O)c1ccc(-n2cc(/C=N\N=c3/scc(-c4ccc(Br)cc4)n3-c3ccccc3)c(-c3ccccc3)n2)cc1 | 12.96 | 0 |  |  |  |  |
